How the values were obtained:
[1] = target: T1, estrogen receptor α (ERα) (Homo sapiens, UniProt P03372); assay: ERα luciferase reporter assay in U2OS cells; type: cell-based; conditions: for ER antagonism in words: testing range 10 μmol·l^−1 to 1 nmol·l^−1
T1 construct: expressed in transfected cells
T1 sequence (P03372 1-595): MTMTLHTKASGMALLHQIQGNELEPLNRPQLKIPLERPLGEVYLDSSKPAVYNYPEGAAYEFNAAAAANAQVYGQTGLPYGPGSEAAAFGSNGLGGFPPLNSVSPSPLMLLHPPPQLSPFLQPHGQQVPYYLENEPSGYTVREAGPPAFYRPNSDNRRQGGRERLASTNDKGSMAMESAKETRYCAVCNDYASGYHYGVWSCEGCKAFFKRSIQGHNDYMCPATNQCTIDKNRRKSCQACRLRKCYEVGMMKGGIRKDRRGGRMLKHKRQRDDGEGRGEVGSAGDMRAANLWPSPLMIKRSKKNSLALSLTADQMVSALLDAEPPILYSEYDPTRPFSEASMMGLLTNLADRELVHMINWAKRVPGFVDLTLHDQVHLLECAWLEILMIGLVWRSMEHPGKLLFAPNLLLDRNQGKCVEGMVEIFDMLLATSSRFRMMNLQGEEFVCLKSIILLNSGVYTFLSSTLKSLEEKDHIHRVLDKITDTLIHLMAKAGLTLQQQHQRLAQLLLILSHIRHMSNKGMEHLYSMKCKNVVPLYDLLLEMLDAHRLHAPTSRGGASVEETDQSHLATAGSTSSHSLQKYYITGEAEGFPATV

human 17βHSD type 5 = target: T2, human 17βHSD type 5 (Homo sapiens, UniProt P42330); assay: Inhibition of recombinant 17βHSD type 5, tritium-labeled substrate conversion; type: biochemical; conditions: 1 μmol · l^−1 test substance
T2 construct: made in house; host or cells: bacteria (Escherichia coli); supernatant of the lysate
T2 sequence (P42330 1-323): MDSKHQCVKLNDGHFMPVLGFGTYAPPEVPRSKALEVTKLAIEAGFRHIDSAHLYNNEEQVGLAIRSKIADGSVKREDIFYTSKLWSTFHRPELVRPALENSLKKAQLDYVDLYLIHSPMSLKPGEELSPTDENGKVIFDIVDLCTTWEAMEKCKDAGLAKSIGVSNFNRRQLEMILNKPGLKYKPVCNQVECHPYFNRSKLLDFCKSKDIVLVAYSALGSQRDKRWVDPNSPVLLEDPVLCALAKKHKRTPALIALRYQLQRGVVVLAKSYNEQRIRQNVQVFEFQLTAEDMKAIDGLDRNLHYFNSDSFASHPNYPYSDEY
Protocol: (§1) The inhibitory activity of the test substances was determined for individual isoenzymes from the 17βHSD family, specifically these were the types 1, 2, 3, 4, 5 and 7. Escherichia coli and mammalian cells expression systems were used for recombinant expression of individual isozymes of human 17βHSD. Only in the case of 17HSD5 the enzyme was partially purified and supernatant obtained by centrifugation of the bacterial lysate was used for testing. Systems expressing specific 17βHSD type were suspended in a reaction buffer and incubated with tritium-labeled substrates and respective cofactors at 37° C. in two parallel tests: the control arrangement (DMSO without the inhibitor) and the test arrangement (DMSO with the inhibitor). DMSO serves as a negative control in this case. After 20-30% of the substrate was converted by the activity of the enzyme to the product in a control test, both tests were terminated. Substrate and product from the test arrangement were isolated by SPE (solid phase extraction), and then separated by reverse phase HPLC. Substrate conversion was determined by integration of the signals of the substrate and product, and was expressed in %. For the purposes of the subsequent calculation of enzyme inhibition, the conversion of the control test was designated as 0% inhibition. All tests were performed in triplicates. IC50 values were subsequently determined by a standard method using the “One Ligand Binding” model of SigmaPlot kinetics module (Schustera et. al. J. Ster. Biochem. Mol. Biol. 2011, 125, 148; Möller et. al. Biioorg. Med. Chem. Lett. 2009, 19, 6740; Möller et. al. PLoS One, 2010, 5, 6, e10969).

human 17βHSD type 1 = target: T3, human 17βHSD type 1 (Homo sapiens, UniProt P14061); assay: Inhibition of recombinant 17βHSD type 1, tritium-labeled substrate conversion; type: biochemical; conditions: for inhibition at 0.1 µM: 0.1 μmol · l^−1 test substance; for inhibition at 0.1 µM / inhibition at 1 µM: read-out: % of inhibition of human 17βHSD1; for inhibition at 1 µM: 1 μmol · l^−1 test substance; for IC50: read-out: 17βHSD1 IC50
T3 construct: made in house; expressing system suspended in buffer, not purified
T3 sequence (P14061 1-328): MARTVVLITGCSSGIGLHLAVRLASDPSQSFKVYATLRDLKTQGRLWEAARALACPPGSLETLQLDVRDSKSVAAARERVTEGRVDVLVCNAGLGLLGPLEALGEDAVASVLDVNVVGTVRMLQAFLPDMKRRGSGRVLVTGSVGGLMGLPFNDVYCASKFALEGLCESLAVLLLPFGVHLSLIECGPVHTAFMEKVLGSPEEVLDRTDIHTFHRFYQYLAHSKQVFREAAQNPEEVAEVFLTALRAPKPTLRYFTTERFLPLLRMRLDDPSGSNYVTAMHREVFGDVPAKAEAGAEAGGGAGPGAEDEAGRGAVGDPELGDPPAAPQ
Protocol: as §1

HCT116p53 wt = assay: MTT cytotoxicity assay, HCT116p53 wt; type: cell-based; conditions: Homo sapiens
Text: (§2) Compounds 5, 6, 7, 9, 14 and 15 were used for evaluation of antitumor activity. MTT cytotoxicity assay was used in vitro on cell lines derived from normal tissues and from tumors. Specifically, these were the K562 line (human myeloid leukemia), K562-Tax (human myeloid leukemia resistant to taxol and overexpressing PgP protein for multidrug resistance), CEM (T-lymphoblastic leukemia), CEM-DNR bulk (T-lymphoblastic leukemia resistant doxorubicin, lacking the expression of the target gene for inhibitors of topoisomerase II alpha), A549 line (human lung adenocarcinoma), HCT116p53 wt (human colon cancer), HCT116p53−/− (human colon cancer, mutant p53), U2OS line of human osteosarcoma and two fibroblast lines MRC5 and BJ as examples of non-tumor cells. Expression characteristics, profiles of susceptibility to classical antitumor drugs and methodology of the MTT cytotoxicity assay were repeatedly published (e.g. Noskova et al. Neoplasma 2002, 49, 418; S̆arek et. al. J. Med. Chem. 2003, 46, 25, 5402).

K562 = assay: MTT cytotoxicity assay, K562; type: cell-based; conditions: Homo sapiens
Text: as §2

MRCS = assay: MTT cytotoxicity assay, MRC5 fibroblasts; type: cell-based; conditions: Homo sapiens, Fibroblast, non-tumor fibroblasts
Text: as §2

U2OS = assay: MTT cytotoxicity assay, U2OS; type: cell-based; conditions: Homo sapiens
Text: as §2

human 17βHSD1 [2] = target: T4, human 17βHSD1 (Homo sapiens, UniProt P14061); assay: 17βHSD inhibition in MCF-7 cells transfected with human 17βHSD1, E1 in supernatant; type: cell-based; design: expressed in transfected cells; host or cells: MCF-7; conditions: 10 μmol·l^−1
T4 sequence (P14061 1-328): T3 sequence (P14061 1-328)
Protocol: (§3) For this experiment, non-cytotoxic concentrations of estrone derivative (10 μmol·l^−1) were used. E1 levels were determined by an immuno-enzymatic assay.

CEM = assay: MTT cytotoxicity assay, CEM; type: cell-based; conditions: Homo sapiens, CCRF-CEM
Text: as §2

CEM-DNR-bulk = assay: MTT cytotoxicity assay, CEM-DNR-bulk; type: cell-based
Text: as §2

human 17βHSD1 [3] = target: T4, human 17βHSD1; assay: 17βHSD inhibition in CHO cells transfected with human 17βHSD1, E1 in supernatant; type: cell-based; design: expressed in transfected cells; conditions: 10 μmol·l^−1
Protocol: as §3

A549 = assay: MTT cytotoxicity assay, A549; type: cell-based; conditions: Homo sapiens
Text: as §2

BJ = assay: MTT cytotoxicity assay, BJ fibroblasts; type: cell-based; conditions: Homo sapiens, non-tumor fibroblasts
Text: as §2

HCT116p53-/- = assay: MTT cytotoxicity assay, HCT116p53-/-; type: cell-based; conditions: Homo sapiens
Text: as §2

K562-Tax = assay: MTT cytotoxicity assay, K562-Tax; type: cell-based; conditions: Homo sapiens
Text: as §2

In the case of `C=C[C@@H]1CC(=O)[C@@]2(C)CC[C@@H]3c4ccc(O)cc4CC[C@H]3[C@H]12` [Compound 2a, 3-Hydroxy-15β-vinyl-estra-1,3,5(10)-trien-17-one], the “estrogenic effect in words” value [1] is reported as “partial estrogenicity”, the “% of inhibition of human 17βHSD5” value (human 17βHSD type 5) is reported as 7% and the inhibition at 0.1 µM (human 17βHSD type 1) is reported as 79%. The inhibition at 1 µM (human 17βHSD type 1) was 95%, the “isoenzyme selectivity in words” value (human 17βHSD type 1; among 17βHSD types 1, 2, 3, 4, 5, 7) was “inhibits exclusively the 17βHSD1 isoenzyme” and the IC50 (human 17βHSD type 1) was 17 nM. It also gave a melting point of 162 °C.

With `C[C@]12CC[C@@H]3c4ccc(O)cc4CC[C@H]3[C@@H]1[C@H](CCc1ccccc1)CC2=O` [Compound 3, 15β-Phenethyl-3-hydroxy-estra-1,3,5(10)-trien-17-one] the “ER antagonism in words” value [1] was “ER antagonist”, the “% of inhibition of human 17βHSD5” value (human 17βHSD type 5) was 60% and the inhibition at 0.1 µM (human 17βHSD type 1) was 66%. The inhibition at 1 µM (human 17βHSD type 1) was 83% and the IC50 (human 17βHSD type 1) was 50 nM.

For `C[C@]12CC[C@@H]3c4ccc(O)cc4CC[C@H]3[C@@H]1[C@H](CCc1ccc(C(F)(F)F)cc1)CC2=O` [Compound 4, 15β-(4-(Trifluoromethyl)phenethyl)-3-hydroxy-estra-1,3,5(10)-trien-17-one], the “ER antagonism in words” value [1] was “ER antagonist”, the “% of inhibition of human 17βHSD5” value (human 17βHSD type 5) was 89% and the inhibition at 0.1 µM (human 17βHSD type 1) was 68%. It also gave an inhibition at 1 µM (human 17βHSD type 1) of 91%, an IC50 (human 17βHSD type 1) of 42 nM and a melting point of 168 °C.

In the case of `C[C@]12CC[C@@H]3c4ccc(O)cc4CC[C@H]3[C@@H]1[C@H](CCc1ccc3ccccc3c1)CC2=O` [Compound 8, 3-Hydroxy-15β-(2-(naphtalen-2-yl)ethyl)-estra-1,3,5(10)-trien-17-one], the “% of inhibition of human 17βHSD5” value (human 17βHSD type 5) is reported as 76%, the inhibition at 0.1 µM (human 17βHSD type 1) is reported as 77% and the inhibition at 1 µM (human 17βHSD type 1) is reported as 92%. It also gave an IC50 (human 17βHSD type 1) of 18 nM and a melting point of 201 °C.

For `COc1cccc(CC[C@@H]2CC(=O)[C@@]3(C)CC[C@@H]4c5ccc(O)cc5CC[C@H]4[C@H]23)c1` [Compound 10, 3-Hydroxy-15β-(3-methoxyphenethyl)-estra-1,3,5(10)-trien-17-one], the inhibition at 0.1 µM (human 17βHSD type 1) was 72%, the inhibition at 1 µM (human 17βHSD type 1) was 87% and the melting point was 178 °C.

`COc1ccc(CC[C@@H]2CC(=O)[C@@]3(C)CC[C@@H]4c5ccc(O)cc5CC[C@H]4[C@H]23)cc1OC` [Compound 11, 3-Hydroxy-15β-(3,4-dimethoxyphenethyl)-estra-1,3,5(10)-trien-17-one] gave an inhibition at 0.1 µM (human 17βHSD type 1) of 36% and an inhibition at 1 µM (human 17βHSD type 1) of 67%.

With `CC(C)(C)Oc1ccc(CC[C@@H]2CC(=O)[C@@]3(C)CC[C@@H]4c5ccc(O)cc5CC[C@H]4[C@H]23)cc1` [Compound 13, 15β-(4-t-Butoxyphenethyl)-3-hydroxy-estra-1,3,5(10)-trien-17-one] the inhibition at 0.1 µM (human 17βHSD type 1) was 62% and the inhibition at 1 µM (human 17βHSD type 1) was 80%.

In the case of `C[C@]12CC[C@@H]3c4ccc(O)cc4CC[C@H]3[C@@H]1[C@H](CCc1ccc(O)cc1)CC2=O` [Compound 14, 15β-(4-Hydroxyphenethyl)-3-hydroxy-estra-1,3,5(10)-trien-17-one], the IC50 (HCT116p53 wt) is reported as 28.2 µM, the IC50 (K562) is reported as 22.6 µM and the IC50 (MRCS) is reported as 50 µM. The IC50 (U2OS) was 44.6 µM, the “E1 in supernatant, MCF-7” value (human 17βHSD1 [2]; 8 hr.) was 4298 pg/mL and the “E1 in supernatant, MCF-7” value (human 17βHSD1 [2]; 24 hr.) was 2626 pg/mL. For the same compound, the “% of inhibition of human 17βHSD5” value (human 17βHSD type 5) was 42%, the IC50 (CEM) was 25.8 µM and the inhibition at 0.1 µM (human 17βHSD type 1) was 72%. For the same compound, the inhibition at 1 µM (human 17βHSD type 1) was 97%, the IC50 (CEM-DNR-bulk) was 30.8 µM and the “E1 in supernatant, CHO” value (human 17βHSD1 [3]; 8 hr.) was 3179 pg/mL. The “E1 in supernatant, CHO” value (human 17βHSD1 [3]; 24 hr.) was 1054 pg/mL, the IC50 (A549) was 41.3 µM and the IC50 (BJ) was no less than 50 µM. It also gave an IC50 (HCT116p53-/-) of 32.6 µM and an IC50 (K562-Tax) of 18.9 µM.

With `C[C@]12CC[C@@H]3c4ccc(O)cc4CC[C@H]3[C@@H]1[C@H](CCc1cc(F)c(F)c(F)c1)CC2=O` [Compound 16, 15β-(3,4,5-Trifluorophenethyl)-3-hydroxy-estra-1,3,5(10)-trien-17-one] the “% of inhibition of human 17βHSD5” value (human 17βHSD type 5) was 79%, the inhibition at 0.1 µM (human 17βHSD type 1) was 67% and the inhibition at 1 µM (human 17βHSD type 1) was 95%. The IC50 (human 17βHSD type 1) was 36 nM and the melting point was 182 °C.

With `C[C@]12CC[C@@H]3c4ccc(O)cc4CC[C@H]3[C@@H]1[C@H](CCc1c(F)c(F)c(F)c(F)c1F)CC2=O` [Compound 17, 15β-(2,3,4,5,6-Pentafluorophenethyl)-3-hydroxy-estra-1,3,5(10)-trien-17-one] the “% of inhibition of human 17βHSD5” value (human 17βHSD type 5) was 31. %, the inhibition at 0.1 µM (human 17βHSD type 1) was 56% and the inhibition at 1 µM (human 17βHSD type 1) was 90%. The melting point was 151 °C.
